Measured values: US20230190760A1, “ADVANTAGEOUS THERAPIES FOR DISORDERS MEDIATED BY IKAROS OR AIOLOS” (C4 Therapeutics, Inc., priority 2020, published 2023)

Experiments:
[1] = tested on: anaplastic large cell lymphoma (ALCL) cell lines; test: Anti-cancer activity in ALCL cell lines; assay type: cell-based; conditions: four out of six cell lines were responsive; read-out: mean IC50 among the responsive lines
[2] = tested on: hematological cancer cell lines; test: Anti-proliferative activity in hematological cancer cell lines (whole panel); assay type: cell-based; conditions: in multiple cell lines, 96 hours
IKZF1 = molecular target: T1, IKZF1 (Rattus norvegicus, UniProt A0A0G2JVD9); test: Ex vivo IKZF1 degradation in PBMC, rat; assay type: cell-based; conditions: rat cells
T1 construct: from tissue; host or cells: peripheral blood cells (PBMC) of rats, ex vivo
Procedure: (§1) IKZF1/3 are not degraded in mouse cells treated with thalidomide or its IMiD® analogs because of a single amino acid difference in mouse cereblon compared to human cereblon that causes steric hindrance and prevents recruitment of IKZF1/3. Ex vivo studies were performed in peripheral blood cells (PBMC) of mice, rats, dogs, and monkeys to identify relevant species for IND enabling-toxicity studies based on the degree of IKZF1 degradation by Compound 1. IKZF1 was not degraded in mouse or rat cells by Compound 1, thus, while rat could not be considered a pharmacologically relevant species for human risk assessment, it was chosen as the rodent species for toxicological studies because it is widely used in toxicity testing and a substantial historical toxicology database is available. […] Therefore, cynomolgus monkey was chosen for non-rodent toxicological studies.

IKZF1/3 = test: Ex vivo IKZF1/3 degradation in PBMC, dog; assay type: cell-based; conditions: dog cells
Procedure: as §1

[3] = tested on: MM1.S multiple myeloma tumors; test: Disseminated MM1.S-Luc multiple myeloma model, bioluminescence; assay type: in vivo, mice; conditions: 300 μg/kg QD orally
Procedure: Compound 1 was administered at 300 μg/kg QD (every day) orally to female NOD SCID mice with disseminated MM1.S multiple myeloma tumors with a measurable MM1.S tumor burden on day 0 and dosed PO daily for 3 weeks. […] Data are expressed as mean BLI±SEM.
A xenograft study was conducted. Female SCID animals were irradiated with a 200 rads Co60 irradiator source and after 24 hours, animals were inoculated via tail vein injection with 1×107 MM1.S-Luc in 200 μL PBS. Tumor burden was measured twice weekly using imaging analysis. Mice were injected intraperitoneally with 15 mg/mL of D-luciferin and anesthetized with 1-2% isoflurane inhalation. 10 minutes post luciferin injection, mice were imaged using IVIS Lumina II (Perkin Elmer) and total bioluminescence signal (BLI, photons/s) was measured in a region of interest (ROI). BLI from ROI were quantified and used as an indicator of tumor burden. 29 days post tumor cell inoculation mice were randomized into two groups, with 3 mice per group and an average BLI of 17×10^6 photons. FIG. 6 are images of the mice administered Compound 1 compared to the mice administered vehicle. Images were taken on days 4, 7, 11, 14, and 18.

H929 PomR tumors = test: Pomalidomide resistant H929 PomR xenograft; assay type: in vivo, mice; conditions: 100 μg/kg/day PO
Text: Data are expressed as MTV±SEM.

IKZF1 and IRF-4 = test: KI-JK ALCL tumor pharmacodynamic study, western blot (Example 17); assay type: in vivo, mice; conditions: single dose, 6-hour and 24-hour timepoint
Procedure: A pharmacodynamic study was also conducted in female NOD SCID mice bearing KI-JK ALCL tumors. […] Once tumors reached a volume of 450 mm^3 they were stratified into 3 treatment groups, consisting of 4 mice each.
Mice were sacrificed and tumors harvested at 6 and 24 hours post single dose. Tumors were mechanically homogenized, and protein extracted using RIPA buffer (Sigma Aldrich). Protein concentration was quantified using a Pierce™ BCA Protein Assay Kit, samples were reduced, and equal protein amounts were then loaded onto a western blot gel for analysis. Samples were analyzed for IKZF1 (Invitrogen, PA5-23728) and IRF-4 (CST, 15106) expression. Data is expressed as percentage of IKZF1 or IRF-4 in comparison to the vehicle control and normalized to GAPDH levels to control for protein loading. Error bars represent ±SEM values.

DL-40 ALCL tumors = test: DL-40 ALCL xenograft efficacy (Example 19); assay type: in vivo, mice
Procedure: A xenograft study was conducted in female NOD SCID mice bearing DL-40 ALCL tumors. […]

[4] = tested on: NCI-H929 multiple myeloma tumors; test: NCI-H929 multiple myeloma xenograft, NOD SCID mice (Example 31); assay type: in vivo
Procedure: Compound 1 was administered QD (every day) orally (PO). […]
For the NCI-H929 cells, the xenograft study was conducted in female NOD SCID mice bearing NCI-H929 multiple myeloma tumors.
After the dosing period, tumor growth was monitored for 45 days. […] After the initial 21 days of dosing, all Compound 1 groups were monitored for tumor growth. The 10 μg/kg group was removed from study on 39. The 30 μg/kg group tumors began to regrow, and PO daily dosing resumed starting on day 40 for an additional 23 days. Statistical analysis was performed using two-way analysis of variance (ANOVA). Data are expressed as MTV±SEM.

WSU-DLCL2 = test: Anti-proliferative activity, 96 hours; conditions: Homo sapiens, WSUDLCL2, 96 h
Farage = test: Anti-proliferative activity, 96 hours
SU-DHL-1 = test: Anti-proliferative activity, 96 hours; conditions: Homo sapiens, SU-DHL-1, 96 h
KIJK = test: Anti-proliferative activity, 96 hours
Rec-1 = test: Anti-proliferative activity, 96 hours; conditions: Homo sapiens, Rec1, 96 h
Jeko-1 = test: Anti-proliferative activity, 96 hours; conditions: Homo sapiens, JeKo-1, 96 h
LP-1 = test: Anti-proliferative activity, 96 hours; conditions: Homo sapiens, LP-1, 96 h
RPMI 8226 = test: Anti-proliferative activity, 96 hours; conditions: Homo sapiens, RPMI-8226, 96 h
KMS-26 = test: Anti-proliferative activity, 96 hours; conditions: KMS-26, 96 h
NCIH929 cells = test: NCI-H929 viability assay (CellTiter-Glo)
Procedure: NCIH929 cell viability was determined based on quantification of ATP using CellTiter-Glo®2.0 luminescent Assay kit, which signals the presence of metabolically-active cells. Briefly, test compound was added to 384-well plates at a top concentration of 1 μM with 10 points, half log titration in duplicates. NCIH929 cells were seeded into the 384-well plates in RPMI medium containing 10% FBS and 0.05 mM 2-mercaptoethanol at a cell density of 750 cells per well. Cells treated in the absence of the test compound were the negative control and cells treated in the absence of CellTiter-Glo® 2.0 were the positive control. Cells treated with the test compounds were incubated at 37° C. with 5% CO2 for 96 hr. CellTiter-Glo reagent was then added to the cells and Luminescence was acquired on EnVision™ Multilabel Reader (PerkinElmer, Santa Clara, Calif., USA). % Viability was determined by normalizing the signal with positive and DMSO treated negative controls on the same microtiter plate. […] Curve fit and IC502 determination was performed by 4 parametric regression analysis.

T1 sequence (A0A0G2JVD9 1-562): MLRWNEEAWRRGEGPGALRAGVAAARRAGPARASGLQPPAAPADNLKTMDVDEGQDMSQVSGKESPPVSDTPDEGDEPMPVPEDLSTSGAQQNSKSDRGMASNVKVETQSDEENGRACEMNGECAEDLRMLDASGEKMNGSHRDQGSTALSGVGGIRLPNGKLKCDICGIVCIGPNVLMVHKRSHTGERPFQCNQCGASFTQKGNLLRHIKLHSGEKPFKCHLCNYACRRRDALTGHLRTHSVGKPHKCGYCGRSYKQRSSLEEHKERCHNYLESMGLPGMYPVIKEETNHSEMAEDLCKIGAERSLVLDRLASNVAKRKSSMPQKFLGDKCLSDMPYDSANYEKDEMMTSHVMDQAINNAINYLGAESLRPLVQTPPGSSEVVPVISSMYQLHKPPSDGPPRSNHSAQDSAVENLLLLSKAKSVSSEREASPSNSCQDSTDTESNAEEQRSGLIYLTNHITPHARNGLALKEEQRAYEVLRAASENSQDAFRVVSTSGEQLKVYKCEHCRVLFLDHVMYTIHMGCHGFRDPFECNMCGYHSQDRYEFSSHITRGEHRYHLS
T1 sequence (Q56AP7 whole entry partner): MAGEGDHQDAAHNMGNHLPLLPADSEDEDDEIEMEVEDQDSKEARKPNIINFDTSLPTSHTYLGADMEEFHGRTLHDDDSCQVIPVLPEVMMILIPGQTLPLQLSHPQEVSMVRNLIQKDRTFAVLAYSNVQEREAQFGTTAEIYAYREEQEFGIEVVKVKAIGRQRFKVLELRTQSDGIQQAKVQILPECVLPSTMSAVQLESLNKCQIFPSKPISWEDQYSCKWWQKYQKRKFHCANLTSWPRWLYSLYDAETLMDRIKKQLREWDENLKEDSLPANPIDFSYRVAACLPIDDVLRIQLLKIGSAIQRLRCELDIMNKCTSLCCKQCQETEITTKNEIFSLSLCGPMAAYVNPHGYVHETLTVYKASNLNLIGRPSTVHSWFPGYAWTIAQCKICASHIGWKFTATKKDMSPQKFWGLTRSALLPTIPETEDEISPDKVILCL

Compound: O=C1CC[C@H](N2C(=O)c3cccc4c(Cc5ccc(CN6CCOCC6)cc5)ccc2c34)C(=O)N1 (single isomer, unassigned) [Compound 1]
- IC50 [1]: 1.7 nM
- more active than pomalidomide [2]: more than 5,000 fold
- IKZF1 degradation (IKZF1): not degraded
- effect on IKZF1/3 (IKZF1/3): no effect
- total bioluminescence signal [3]: significantly less than the mice administered vehicle
- tumors versus pomalidomide 3000 μg/kg/day (H929 PomR tumors): smaller
- percentage of IKZF1 and IRF-4 compared to pomalidomide (IKZF1 and IRF-4): smaller
- Statistical Significance Compared to Vehicle (DL-40 ALCL tumors; 3 μg/kg PO daily): 0.0111
- Statistical Significance Compared to Vehicle (DL-40 ALCL tumors; 10 μg/kg PO daily): 0.0006
- Statistical Significance Compared to Vehicle (DL-40 ALCL tumors; 30 μg/kg PO daily): 0.0004
- Statistical Significance Compared to Vehicle (DL-40 ALCL tumors; 100 μg/kg PO daily): 0.0004
- Statistical Significance Compared to Vehicle (DL-40 ALCL tumors; 300 μg/kg PO daily): 0.0004
- tumor volume (DL-40 ALCL tumors; 30, 100, and 300 μg/kg, 21 days): able to reduce tumor volume
- tumor volume versus pomalidomide 3000 μg/kg ([4]; 10, 30 and 100 μg/kg): reduced tumor volume more than pomalidomide
- Statistical Significance Compared to Vehicle ([4]; Dose Level (mg/kg) 10, PO QD): <0.0001
- Statistical Significance Compared to Vehicle ([4]; Dose Level (mg/kg) 30, PO QD): <0.0001
- Statistical Significance Compared to Vehicle ([4]; Dose Level (mg/kg) 100, PO QD): <0.0001
- IC50 (WSU-DLCL2): 2.8 nM
- IC50 (Farage): 56.3 nM
- IC50 (SU-DHL-1): 0.415 nM
- IC50 (KIJK): 0.583 nM
- IC50 (Rec-1): 0.353 nM
- IC50 (Jeko-1): 43.2 nM
- IC50 (LP-1): 0.642 nM
- IC50 (RPMI 8226): 0.698 nM
- IC50 (KMS-26): 0.789 nM
- Mean Emax (%) ± SD, H929 Viability (NCIH929 cells; 96 hours, % viability): 4.0 ± 0.5%
- maximal growth inhibition (NCIH929 cells; previously untreated NCIH929): 96%
- IC50 (NCIH929 cells; read-out: Mean IC50 (nM), H929 Viability, 96 hours): 0.071 nM
